Source: US20180271869A1, “TREATMENT OF ANXIETY DISORDERS AND AUTISM SPECTRUM DISORDERS” (Rugen Holdings (Cayman) Limited, priority 2014, published 2018)
“Also recorded” adds a separate entry of the source.

Experiments:
Sapap3 knock-out mice = assay: Novelty Phobia Test in Sapap3 knock-out mice; format: in vivo, mouse; conditions: for novelty phobia (number of touch bouts), dose dependence: single i.p. administration
Procedure: (§1) Animals. Shank3 knockout mice and Sapap3 knockout mice were purchased from Duke University. The animals were raised in a SPF environment according to AALAC guidelines. The breeding conditions and genotyping method were the same as described in J. M. Welch et al., Nature 2007; 448(7156):894-900, and in J. Peca et al., Nature 2011;472(7344):437-442. Homozygous knockout mice of 4 to 8 weeks of age were used in behavioral assays.
The test compounds were dissolved in a small volume of DMSO and diluted saline and administered intraperitoneally (i.p.) to 4 to 8 week old mice. […]
The behavioral testing apparatus was a rectangular black Plexiglas box, with no top or bottom (50 cm long, 26 cm wide and 15 cm tall). The chambers of the testing apparatus were cleaned and fresh paper chip bedding was added between tests. Behavioral tests were conducted between 10:00 am and 1:00 pm in dim light. Mice were brought to the experiment room in their home cages and administered intraperitoneally with drugs or vehicle in a volume of 10 ml/kg. […] After this habituation period, a novel object (e.g., a toy ball of 3 cm in diameter with spikes) was introduced to the center of the chamber for 5 min. For the entire 15 min that the mouse spent in the chamber, video was recorded and analyzed with AnyMaze software (purchased from Stoelting Co.). The total distance traveled during the entire 15 min and the bouts that the mice touched the novel object during the last 5 min were measured. Statistical significance between two groups was determined by t test. In all statistical measures, the criterion for significance was set at p<0.05.

human NR1/NR2A [1] = molecular target: T1, human NR1/NR2A (Homo sapiens, UniProt Q05586+Q12879); assay: NR2A antagonist activity, Fluo-4 calcium influx assay in HEK293 cells; format: cell-based; conditions: glutamate 100 μM and glycine 50 μM, Fluo-4 fluorescence, read-out: hNR2A IC50
T1 construct: expressed in transfected cells
From the text: (§2) HEK293 cell lines stably expressing cloned human NR1/NR2B and NR1/NR2A, respectively, were established according to standard previously described methods (Hansen et al., Comb. Chem High Throughput Screen. 11:304, 2008). Activation of the NR2A or NR2B subtype of NMDA receptor with glutamate as an agonist and glycine co-agonist on these cells results in calcium influx, which can be monitored with fluorescent indicator Fluo-4. A cell based assay has been implemented to evaluate the effect of a compound on NR2A and NR2B receptors by measuring the fluorescent changes (Hansen et al., Comb. Chem High Throughput Screen. 11:304, 2008).
HEK293 cells stably expressing NR2A or NR2B receptors were cultured at 37° C. in a humidified CO2 incubator in DMEM supplemented with 10% fetal bovine serum (FBS) (Hyclone), 10 μM MK801 (Sigma-Aldrich) and 50 μM AP-5 (Tocris). For experiments, the cells were seeded onto poly-D-lysine-coated 96-well black plates with clear bottom (Corning) at a density of ˜50,000 cells/well. After overnight culture, the growth medium was removed from the wells and the cells were incubated at 37° C. for 60 min in Hanks buffer containing 4 μM fluo-4-AM (Invitrogen) and 0.1% bovine serum albumin (BSA). After dye-loading, the cells were washed three times with Hanks buffer and incubated for 10 min at room temperature with various concentrations of test compounds prepared in Hanks buffer with 0.1% BSA. The cell plates were placed onto FDSS μCell fluorescence reader (Hamamatsu). After 20 sec reading of background fluorescence, agonist glutamate at final 100 μM and co-agonist glycine at final 50 μM were added to the cells to activate the receptor, and the resulting fluorescence changes were recorded and quantified. Based on the changes in fluorescence intensity, the pharmacological effect of test compounds were analyzed and the IC50 values derived from a non-linear least squares fitting of the concentration-dependent response to a standard logistic equation using Prism (Graphpad, Inc):
Amplitude=Max Amplitude/(1+(IC50/[antagonist])°).

human NR1/NR2B = molecular target: T2, human NR1/NR2B (Homo sapiens, UniProt Q05586+Q13224); assay: NR2B antagonist activity, Fluo-4 calcium influx assay in HEK293 cells; format: cell-based; conditions: glutamate 100 μM and glycine 50 μM, Fluo-4 fluorescence, read-out: hNR2B IC50
T2 construct: expressed in transfected cells
Procedure: as §2, with “Fluo-4.” for “Fluo-4. A cell based assay has been implemented to evaluate the effect of a compound on NR2A and NR2B receptors by measuring the fluorescent changes (Hansen et al., Comb. Chem High Throughput Screen. 11:304, 2008).”
For experiments, the cells were seeded onto poly-D-lysine-coated 96-well black plates with clear bottom (Corning) at a density of ˜50,000 cells/well. After overnight culture, the growth medium was removed from the wells and the cells were incubated at 37° C. for 60 min in Hanks buffer containing 4 μM fluo-4-AM (Invitrogen) and 0.1% bovine serum albumin (BSA). After dye-loading, the cells were washed three times with Hanks buffer and incubated for 10 min at room temperature with various concentrations of test compounds prepared in Hanks buffer with 0.1% BSA. The cell plates were placed onto FDSS μCell fluorescence reader (Hamamatsu). After 20 sec reading of background fluorescence, agonist glutamate at final 100 μM and co-agonist glycine at final 50 μM were added to the cells to activate the receptor, and the resulting fluorescence changes were recorded and quantified.

Shank3 knock-out mice = assay: Novelty Phobia Test in Shank3 knock-out mice; format: in vivo, mouse; conditions: for novelty phobia (number of touch bouts): vs vehicle, p<0.05
Procedure: as §1
The test compounds were dissolved in a small volume of DMSO and diluted saline and administered intraperitoneally (i.p.) to 4 to 8 week old mice. About 30-60 minutes after dosing, the mice were subjected to a behavioral test as described below.
The behavioral testing apparatus was a rectangular black Plexiglas box, with no top or bottom (50 cm long, 26 cm wide and 15 cm tall). The chambers of the testing apparatus were cleaned and fresh paper chip bedding was added between tests. Behavioral tests were conducted between 10:00 am and 1:00 pm in dim light. Mice were brought to the experiment room in their home cages and administered intraperitoneally with drugs or vehicle in a volume of 10 ml/kg. About 30 to 60 min after drug administration, the mice were placed into the chamber and allowed to free play for 10 min. After this habituation period, a novel object (e.g., a toy ball of 3 cm in diameter with spikes) was introduced to the center of the chamber for 5 min. For the entire 15 min that the mouse spent in the chamber, video was recorded and analyzed with AnyMaze software (purchased from Stoelting Co.). The total distance traveled during the entire 15 min and the bouts that the mice touched the novel object during the last 5 min were measured. Statistical significance between two groups was determined by t test. In all statistical measures, the criterion for significance was set at p<0.05.

human NR1/NR2A [2] = molecular target: T3, human NR1/NR2A (Homo sapiens, UniProt Q12879); conditions: from L. Mony et al., Br. J. Pharmacol. 2009; read-out: hNR2A IC50; cited from earlier work
T3 construct: expressed in transfected cells

wild-type mice = assay: Elevated Plus Maze; format: in vivo, mouse; conditions: for time spent in the open arms: vs vehicle
From the text: The Elevated Plus Maze, which detects anxiolytic activity, follows that described by S. L. Handley and S. Mithani Naunyn. Schmied. Arch. Pharmacol. 1984, 327, 1-5. Rodents avoid open spaces (the open arms of an elevated plus-maze). Anxiolytics increase exploratory activity in the open arms, as indicated by increased time spent on the open arms and/or by increased % open-arm entries. The maze consists of 4 arms of equal length and width (14×5 cm) arranged in the form of a plus sign (+). Two opposite arms are enclosed by 12 cm high walls (closed arms). The 2 other arms have no walls (open arms). The maze is raised approximately 60 cm above the floor. A mouse was placed in the center of the plus-maze and left to explore for 5 minutes. The number of entries into the open and closed arms and the time spent on the open arms were recorded. The percentage of open arm entries (open arm entries/total arm entries×100) was calculated. Ten mice were studied per group. The test was performed blind (test substances versus vehicle). Data with the test substances were analyzed by comparing treated groups (7 groups except for the reference substance) with vehicle control using one-way ANOVA followed by post-hoc Dunnett's tests. Data with the reference substance were analyzed using unpaired Student's t tests.

wild type mice = assay: Marble Burying Test; format: in vivo, mouse; conditions: for number of marbles buried: vs vehicle, p<0.001
Procedure: The Marble Burying Test was conducted as previously described by C. L. Broekkamp et al., Eur. J. Pharmacol. 1986, 126, 223-229. Mice exposed to novel object (marbles) will bury them in the sawdust floor covering. Anxiolytics decrease the number of marbles buried at non-sedative doses. Mice were individually placed in transparent plastic cages (33×21×18 cm) with 5 cm of sawdust on the floor 25 marbles grouped in the center of the cage. The cage was covered with an inverted plastic cage. Each test cage, together with the marbles, was impregnated with mouse odor before-hand by leaving 10 mice in the cage for 15 minutes. These mice then played no further role in the experiment. The number of marbles covered by sawdust (⅔ or more) was counted at the end of a 30-minute test. Twelve mice were studied per group. The test was performed blind (test substances versus vehicle). Clobazam (8 mg/kg i.p.), administered 40 minutes before the test, was used as reference substance. Data with the test substances were analyzed by comparing treated groups with vehicle control using Kruskall-Wallis test followed by Mann-Whitney U tests. Data with the reference substance were analyzed using Mann-Whitney U tests.

[3] = single dose subcutaneous, highest dose tested; Iijima et al. 2010; cited from earlier work
[4] = Mathur et al. 2008; cited from earlier work
[5] = each test dose, single i.p., vs vehicle
[6] = 5 mg/kg i.p. once/day for 6 days, tested 30-60 min after last dose
[7] = 8 mg/kg i.p. 30 minutes before testing

T1 sequence (Q12879 23-1464, other chains not shown): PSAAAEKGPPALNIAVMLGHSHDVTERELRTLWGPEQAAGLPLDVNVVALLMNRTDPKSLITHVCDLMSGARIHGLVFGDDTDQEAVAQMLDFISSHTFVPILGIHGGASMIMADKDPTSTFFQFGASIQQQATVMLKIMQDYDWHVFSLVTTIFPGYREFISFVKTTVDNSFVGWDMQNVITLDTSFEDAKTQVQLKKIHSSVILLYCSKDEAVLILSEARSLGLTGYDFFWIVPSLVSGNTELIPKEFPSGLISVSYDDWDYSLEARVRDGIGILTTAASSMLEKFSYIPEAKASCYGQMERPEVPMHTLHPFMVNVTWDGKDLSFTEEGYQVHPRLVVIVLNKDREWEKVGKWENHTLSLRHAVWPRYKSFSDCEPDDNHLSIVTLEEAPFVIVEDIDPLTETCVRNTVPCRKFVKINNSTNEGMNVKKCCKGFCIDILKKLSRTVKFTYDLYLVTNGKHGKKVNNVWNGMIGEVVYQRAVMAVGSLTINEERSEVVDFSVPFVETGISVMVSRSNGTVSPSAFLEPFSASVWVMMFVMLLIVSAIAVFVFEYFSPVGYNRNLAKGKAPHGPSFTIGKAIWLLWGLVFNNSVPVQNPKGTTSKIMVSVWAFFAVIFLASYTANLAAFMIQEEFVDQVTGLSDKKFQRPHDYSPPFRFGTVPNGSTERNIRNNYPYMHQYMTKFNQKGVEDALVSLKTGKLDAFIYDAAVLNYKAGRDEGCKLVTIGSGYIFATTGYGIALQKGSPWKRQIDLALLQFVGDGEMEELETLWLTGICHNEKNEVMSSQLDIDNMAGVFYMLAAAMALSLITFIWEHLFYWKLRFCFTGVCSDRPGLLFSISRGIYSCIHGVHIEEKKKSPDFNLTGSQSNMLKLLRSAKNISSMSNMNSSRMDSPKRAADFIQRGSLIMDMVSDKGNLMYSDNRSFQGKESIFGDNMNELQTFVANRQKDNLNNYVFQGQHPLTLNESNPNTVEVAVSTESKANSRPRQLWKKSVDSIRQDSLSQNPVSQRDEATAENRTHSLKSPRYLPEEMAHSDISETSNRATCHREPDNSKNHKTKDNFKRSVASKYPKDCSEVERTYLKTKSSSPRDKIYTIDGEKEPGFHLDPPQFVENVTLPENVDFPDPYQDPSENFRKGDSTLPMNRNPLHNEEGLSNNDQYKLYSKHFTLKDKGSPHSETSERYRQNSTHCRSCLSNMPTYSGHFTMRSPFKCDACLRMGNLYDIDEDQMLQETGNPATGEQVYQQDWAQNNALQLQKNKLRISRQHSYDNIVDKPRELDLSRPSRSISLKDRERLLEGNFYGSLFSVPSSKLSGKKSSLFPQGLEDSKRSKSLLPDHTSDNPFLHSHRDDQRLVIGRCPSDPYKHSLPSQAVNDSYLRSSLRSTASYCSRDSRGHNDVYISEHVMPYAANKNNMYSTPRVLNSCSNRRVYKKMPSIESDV
T2 sequence (Q13224 27-1484, other chains not shown): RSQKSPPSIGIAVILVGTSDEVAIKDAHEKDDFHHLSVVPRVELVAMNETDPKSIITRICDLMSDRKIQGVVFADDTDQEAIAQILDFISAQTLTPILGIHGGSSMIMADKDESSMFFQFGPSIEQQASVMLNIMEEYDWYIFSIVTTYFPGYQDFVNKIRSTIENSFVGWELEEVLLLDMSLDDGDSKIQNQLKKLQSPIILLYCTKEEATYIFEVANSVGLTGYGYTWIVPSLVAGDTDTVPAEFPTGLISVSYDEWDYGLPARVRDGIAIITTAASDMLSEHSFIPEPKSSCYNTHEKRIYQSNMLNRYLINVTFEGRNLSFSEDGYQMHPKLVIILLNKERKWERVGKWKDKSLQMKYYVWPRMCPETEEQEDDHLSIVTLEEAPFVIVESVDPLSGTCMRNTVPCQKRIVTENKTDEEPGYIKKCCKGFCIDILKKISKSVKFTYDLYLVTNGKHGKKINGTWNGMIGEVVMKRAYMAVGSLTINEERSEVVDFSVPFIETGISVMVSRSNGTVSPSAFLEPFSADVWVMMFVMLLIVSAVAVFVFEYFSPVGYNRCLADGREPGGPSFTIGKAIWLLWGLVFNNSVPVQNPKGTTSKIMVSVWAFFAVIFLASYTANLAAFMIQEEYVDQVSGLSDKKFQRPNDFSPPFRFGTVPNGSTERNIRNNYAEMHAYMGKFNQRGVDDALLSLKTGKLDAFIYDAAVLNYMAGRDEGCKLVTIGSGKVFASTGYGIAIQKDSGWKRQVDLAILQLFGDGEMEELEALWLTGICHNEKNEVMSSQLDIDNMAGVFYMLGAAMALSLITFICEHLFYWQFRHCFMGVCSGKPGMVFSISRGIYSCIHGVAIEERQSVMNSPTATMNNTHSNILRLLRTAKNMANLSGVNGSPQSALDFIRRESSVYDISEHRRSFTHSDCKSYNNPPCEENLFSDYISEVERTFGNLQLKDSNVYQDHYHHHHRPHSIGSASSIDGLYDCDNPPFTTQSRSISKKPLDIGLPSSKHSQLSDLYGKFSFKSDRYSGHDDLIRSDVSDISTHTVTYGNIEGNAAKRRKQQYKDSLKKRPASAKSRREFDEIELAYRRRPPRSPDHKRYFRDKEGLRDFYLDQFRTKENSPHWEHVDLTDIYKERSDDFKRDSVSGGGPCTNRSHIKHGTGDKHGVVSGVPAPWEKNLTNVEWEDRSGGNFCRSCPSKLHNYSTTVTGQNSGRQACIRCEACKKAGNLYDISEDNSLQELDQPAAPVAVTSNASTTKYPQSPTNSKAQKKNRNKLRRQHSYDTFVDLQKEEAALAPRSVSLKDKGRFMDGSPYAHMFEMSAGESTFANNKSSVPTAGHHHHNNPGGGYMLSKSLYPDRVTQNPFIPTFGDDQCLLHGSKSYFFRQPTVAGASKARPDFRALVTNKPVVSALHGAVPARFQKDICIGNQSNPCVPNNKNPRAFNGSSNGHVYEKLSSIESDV
T3 sequence (Q12879 23-1464, other chains not shown): as the sequence (Q12879 23-1464, other chains not shown) above

Cc1ccc(COC(=O)N2CC[C@H](CNc3ncccn3)[C@H](F)C2)cc1 (racemic) [Compound C, (±)-cis-4-methylbenzyl 3-fluoro-4-[(pyrimidin-2-ylamino)methyl]piperidine-1-carboxylate]
novelty phobia (number of touch bouts) (Sapap3 knock-out mice; [5]): significantly improved
novelty phobia (number of touch bouts), dose dependence (Sapap3 knock-out mice): dose-dependently improved novelty phobia

Cc1ccc(COC(=O)N2CC[C@@H](CNc3ncccn3)[C@@H](F)C2)cc1 [(3R,4S)-4-methylbenzyl 3-fluoro-4-[(pyrimidin-2-ylamino)methyl]piperidine-1-carboxylate]
IC50 (human NR1/NR2A [1]): > 10 µM
IC50 (human NR1/NR2B): 0.018 µM

C[C@@H]([C@@H](O)c1ccc(O)cc1)N1CCC(O)(c2ccccc2)CC1 [Compound A, (+)-(1S,2S)-1-(4-hydroxyphenyl)-2-(4-hydroxy-4-phenylpiperidino)-1-propanol, reference compound]
novelty phobia (number of touch bouts) (Shank3 knock-out mice; [6]): significantly improved novelty phobia
IC50 (human NR1/NR2A [2]): ≥ 10 µM

FC(F)(F)c1ccc(C(F)(F)CN2CCC(Nc3ncnc4[nH]ncc34)CC2)cc1 [Compound B, N-(1-(2,2-difluoro-2-(4-trifluoromethyl)phenyl-ethyl)piperidin-4-yl)-1H-pyrazolo[3,4-d]pyrimidin-4-amine]
IC50 (human NR1/NR2A [1]): > 10 µM
novelty phobia (number of touch bouts) (Shank3 knock-out mice; [6]): significantly improved novelty phobia
novelty phobia (number of touch bouts) (Shank3 knock-out mice; 1 and 5 mg/kg single i.p.): significantly improved novelty phobia
novelty phobia (number of touch bouts), dose dependence (Shank3 knock-out mice; single i.p. administration 30-60 min before testing): dose-dependently improved novelty phobia
novelty phobia (number of touch bouts) (Sapap3 knock-out mice; [5]): significantly improved
novelty phobia (number of touch bouts), dose dependence (Sapap3 knock-out mice): dose-dependently improved novelty phobia

Cc1ccc(COC(=O)N2CC[C@H](CNc3ncccn3)[C@H](F)C2)cc1 [Compound D, (−)-(3S,4R)-cis-4-methylbenzyl 3-fluoro-4-[(pyrimidin-2-ylamino)methyl]-piperidine-1-carboxylate]
IC50 (human NR1/NR2A [1]): > 10 µM
IC50 (human NR1/NR2B): 0.011 µM
time spent in the open arms (wild-type mice; 3 and 10 mg/kg i.p. 20 minutes before the test, p<0.01/0.001): significantly different from that of vehicle
time spent in the open arms, dose dependence (wild-type mice; single i.p. dose 20 minutes before the test): maximal efficacy approaching that of the benzodiazepine control compound clobazam; also recorded: dose-dependently increased the amount of time spent
novelty phobia (number of touch bouts) (Sapap3 knock-out mice; 1 mg/kg i.p. 20 minutes prior to testing): improved novelty phobia
number of marbles buried (wild type mice; 1 mg/kg i.p. 20 minutes before the test): significantly different from that of vehicle
number of marbles buried, dose dependence (wild type mice; single i.p. dose 20 minutes before 30-minute test session): dose-dependently reduced the number of marbles buried

C[C@@H](CN1CCC(Cc2ccccc2)CC1)[C@@H](O)c1ccc(O)cc1 [Ro25-6981]
effect in the marble burying test [3]: modest efficacy
activity in the elevated plus maze test [4]: inactive

CN1C(=O)CC(=O)N(c2ccccc2)c2cc(Cl)ccc21 [clobazam, reference compound]
time spent in the open arms (wild-type mice; [7]): significantly different from that of vehicle
number of marbles buried (wild type mice; [7]): significantly different from that of vehicle
